Holding throughout (experiment): NCI anticancer screen, dose series, 48 h
Test [1] deals with DLD-1.
Test [2] concerns CCRF-CEM.
Test [3] has as its system SK-OV-3.
Test [4] deals with SNB-75.
For test [5], the system named is SK-MEL-5.
For test [6], the system named is SF-295.
For test [7], the system named is 786-0.
Test [8] relates to COLO 205.
The test system of test [9] is Malme-3M.
Test [10] deals with UACC-62.
The subject of test [11] is SNB-19.
Test [12] deals with SF-268.
Test [13] deals with HCC 2998.
Test [14] concerns SN12C.
For test [15], the system named is MOLT-4.
Test [16] concerns U-251.
The test system of test [17] is NCI-H226.
Test [18] has as its system MDA-MB-435.
The test system of test [19] is OVCAR-4.
Test [20] relates to MCF7.

The structures appear in SMILES notation.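 Where inhibition never reached the appropriate level, the endpoint shown equals the highest concentration tested. Otherwise, values were interpolated linearly from a five-concentration, 48-hour dose response in 96-well plates. Here, GI50 denotes the concentration required for 50% inhibition of growth.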 Calls of active or inactive are those of the source. No stated cut-off is given here; in the data, active = GI50 up to about 1.1 µM and inactive = higher.

With `COC(=O)CCCCCOS(=O)(=O)c1ccc(C)cc1`, the GI50 in [1], in [2], in test [3], in [4], in test [5] and in [6] was > 100 µM (inactive) in each case. In addition, the GI50 in [7], in test [8], in test [9], in test [10], in test [11] and in test [12] was > 100 µM (inactive) in each case. The GI50 is > 100 µM (inactive) in test [13], > 100 µM (inactive) in [14], 78.7 µM (inactive) in test [15] and > 100 µM (inactive) in [16].
Regarding `CCOC(=O)NC(=O)c1cn(CC(=O)NCC(=O)NCC(=O)NCCCN2CCN(CCCNC(=O)CNC(=O)CNC(=O)Cn3cc(C(=O)NC(=O)OCC)c(=O)[nH]c3=O)CC2)c(=O)[nH]c1=O`, the GI50 in [1], in test [2], in test [3], in test [4], in [5] and in test [6] was > 100 µM (inactive) in each case. The GI50 in [7], in [8], in test [9], in [10], in [11] and in test [12] was > 100 µM (inactive) in each case. The GI50 in test [13], in test [14], in test [15] and in [16] was > 100 µM (inactive) throughout.
Consider `CC1(C)CC2(C)ON=C(c3ccccc3)N2c2ccccc2N1` (stereo not given), for which the GI50 in [2] was 32.7 µM (inactive); in test [3] it was 21.7 µM (inactive); in [4] it was 23.9 µM (inactive); in test [5], 16.7 µM (inactive); in test [6], 28.7 µM (inactive); in test [17], 17.3 µM (inactive). Moreover, the GI50 in [18] is 19.8 µM (inactive); in test [7], 23.3 µM (inactive); in test [8], 19.5 µM (inactive); in test [19] it was 39.8 µM (inactive); in test [9], 20.5 µM (inactive); in [10], 14.1 µM (inactive). The GI50 in test [11] is 24.2 µM (inactive); in test [12], 22.1 µM (inactive); in test [20] it was 22.2 µM (inactive); in [13] it was 35.2 µM (inactive); in test [14], 30.3 µM (inactive); in test [15], 21.6 µM (inactive). The GI50 in [16] is 19.8 µM (inactive).
Take `Cc1cc(O)nc(NNC(C#N)c2c(O)ccc3ccccc23)n1` (stereo not given): the GI50 was 3.42 µM (inactive) in test [1]; 1.73 µM (inactive) in test [2]; 7.08 µM (inactive) in test [3]; 15 µM (inactive) in test [4]; 2.99 µM (inactive) in [5]; 4.74 µM (inactive) in test [6]. The GI50 in test [17] was 4.14 µM (inactive); in [7], 3.52 µM (inactive); in test [8], 22.4 µM (inactive); in test [19], 3.32 µM (inactive); in test [9] it was 7.55 µM (inactive); in test [10] it was 2.87 µM (inactive). Moreover, the GI50 in test [12] is 2.28 µM (inactive); in test [14], 3.18 µM (inactive); in test [15], 2.34 µM (inactive); in test [16] it was 2.91 µM (inactive).
For the molecule `O=c1nc2n(CCO)c(-c3ccccc3)c(-c3ccccc3)nc-2c(=O)[nH]1`, the GI50 in [2], in test [3], in test [4], in test [5], in test [6] and in test [17] was > 100 µM (inactive) throughout. The GI50 in test [18], in [7], in [8], in [19], in [9] and in test [10] was > 100 µM (inactive) throughout. The GI50 in test [11], in [12], in test [20], in test [13], in test [14] and in [15] was > 100 µM (inactive) each time. Also, the GI50 in [16] was > 100 µM (inactive).
Take `O=C1c2cc([N+](=O)[O-])cnc2S(=O)(=O)N1c1ccc(Br)cc1`: the GI50 in test [2], in test [3], in test [4], in test [5], in test [6] and in test [17] was > 100 µM (inactive) in each case. The GI50 in test [18], in test [7], in test [8], in test [19], in test [9] and in [10] was > 100 µM (inactive) each time. The GI50 in test [11], in [12], in [20], in test [13], in [14] and in [15] was > 100 µM (inactive) throughout. In addition, the GI50 in test [16] is > 100 µM (inactive).
Regarding `O=[N+]([O-])c1ccc(N2N=C(c3ccc4ccccc4c3O)CC2c2ccc(Cl)cc2Cl)c([N+](=O)[O-])c1` (stereo not given), the GI50 in test [2] was 12.9 µM (inactive); in test [3], 47.8 µM (inactive); in test [4] it was 92.7 µM (inactive); in [5], 29.1 µM (inactive); in test [6] it was 24.3 µM (inactive); in [17] it was 49.1 µM (inactive). Moreover, the GI50 in test [18] was 29.5 µM (inactive); in test [7] it was 28.2 µM (inactive); in test [8], 44.7 µM (inactive); in [19], 41.7 µM (inactive); in test [9], 32.2 µM (inactive); in test [10], 26.7 µM (inactive). Also, the GI50 in [11] is 29.3 µM (inactive); in test [12] it was 53.1 µM (inactive); in test [20] it was 40.9 µM (inactive); in test [13], 30.3 µM (inactive); in test [14], 71 µM (inactive); in test [15], 14.9 µM (inactive). In addition, the GI50 in test [16] was 28 µM (inactive).
As for `C=C1CC(COc2ccc3ccc(=O)oc3c2)(c2ccccc2)OC1=O` (stereo not given), the GI50 is 0.233 µM (active) in test [2]; 5.02 µM (inactive) in [3]; 5.92 µM (inactive) in [4]; 1.47 µM (inactive) in test [5]; 6.78 µM (inactive) in test [6]; 5.3 µM (inactive) in [17]. Also, the GI50 in test [18] is 2.61 µM (inactive); in [7] it was 1.46 µM (inactive); in test [8] it was 0.625 µM (active); in test [19] it was 1.49 µM (inactive); in test [9], 2.33 µM (inactive); in test [10], 1.45 µM (inactive). For the same molecule, the GI50 is 15 µM (inactive) in test [11]; 3.27 µM (inactive) in test [12]; 1.26 µM (inactive) in test [20]; 1.27 µM (inactive) in [13]; 2.73 µM (inactive) in [14]; 1.25 µM (inactive) in [15]. In addition, in test [16], the GI50 was 8.93 µM (inactive).
On to `CCOC(=O)N1CCC2(CC1)CC(=O)N(Nc1ccccc1)C2=O`, for which the GI50 was > 100 µM (inactive) in test [2]; > 100 µM (inactive) in test [3]; > 100 µM (inactive) in test [4]; > 100 µM (inactive) in test [5]; 40.3 µM (inactive) in test [6]; > 100 µM (inactive) in test [17]. Also, the GI50 was 30.8 µM (inactive) in test [18]; > 100 µM (inactive) in [7]; > 100 µM (inactive) in [8]; > 100 µM (inactive) in test [19]; > 100 µM (inactive) in [9]; 32.1 µM (inactive) in test [10]. For the same molecule, the GI50 was > 100 µM (inactive) in test [11]; > 100 µM (inactive) in test [12]; 90.6 µM (inactive) in [20]; > 100 µM (inactive) in test [13]; > 100 µM (inactive) in test [14]; > 100 µM (inactive) in [15]. Moreover, in test [16], the GI50 is > 100 µM (inactive).
For `Nc1ncnc2c1nnn2C1CCC(CP(=O)(O)O)C1` (stereo not given), the GI50 in test [2], in test [3], in [4], in test [5], in test [6] and in [17] was > 100 µM (inactive) in each case. The GI50 in test [18], in test [7], in test [8], in test [19], in test [9] and in test [10] was > 100 µM (inactive) throughout. Also, the GI50 in test [11], in test [12], in test [20], in test [13], in test [14] and in test [15] was > 100 µM (inactive) in each case. Also, the GI50 in test [16] was > 100 µM (inactive).
For the molecule `CC(C)(C)OC(=O)N1C[C@H](CC(=O)OCc2ccccc2)C[C@H]1C(=O)OCC(Cl)(Cl)Cl`, the GI50 in test [2] was 1.35 µM (inactive); in test [3], > 50 µM (inactive); in [4] it was 10.5 µM (inactive); in test [5], 2.24 µM (inactive); in test [6], 2.38 µM (inactive); in test [17], 3.55 µM (inactive). The GI50 in [18] is 5.31 µM (inactive); in [7] it was 5.96 µM (inactive); in test [8], 3.18 µM (inactive); in [19] it was 3.95 µM (inactive); in test [9] it was 6.28 µM (inactive); in test [10], 5.6 µM (inactive). Further, the GI50 was 7.74 µM (inactive) in test [11]; 8.28 µM (inactive) in test [12]; 3.11 µM (inactive) in test [20]; 10.7 µM (inactive) in test [13]; 6.62 µM (inactive) in [14]; 1.19 µM (inactive) in test [15]. Moreover, the GI50 in [16] was 2.56 µM (inactive).

For the origin of these results see ChEMBL document CHEMBL1201862, “PubChem BioAssay data set” (2004).
